Assay results published in ChEMBL document CHEMBL4619804, “Target-Based Identification and Optimization of 5-Indazol-5-yl Pyridones as Toll-like Receptor 7 and 8 Antagonists Using a Biochemical TLR8 Antagonist Competition Assay” (J Med Chem, 2020).

Tests used:
[1] = target: T1, Interleukin-1 receptor type 1 (Homo sapiens, UniProt P14778); test: Antagonist activity at IL1R in human PBMC assessed as inhibition of IL1beta-induced TNFalpha production preincubated for 30 mins followed by IL1beta addition and measured after 20 hrs by HTRF assay; format: cell-based
T1 sequence (P14778 whole entry): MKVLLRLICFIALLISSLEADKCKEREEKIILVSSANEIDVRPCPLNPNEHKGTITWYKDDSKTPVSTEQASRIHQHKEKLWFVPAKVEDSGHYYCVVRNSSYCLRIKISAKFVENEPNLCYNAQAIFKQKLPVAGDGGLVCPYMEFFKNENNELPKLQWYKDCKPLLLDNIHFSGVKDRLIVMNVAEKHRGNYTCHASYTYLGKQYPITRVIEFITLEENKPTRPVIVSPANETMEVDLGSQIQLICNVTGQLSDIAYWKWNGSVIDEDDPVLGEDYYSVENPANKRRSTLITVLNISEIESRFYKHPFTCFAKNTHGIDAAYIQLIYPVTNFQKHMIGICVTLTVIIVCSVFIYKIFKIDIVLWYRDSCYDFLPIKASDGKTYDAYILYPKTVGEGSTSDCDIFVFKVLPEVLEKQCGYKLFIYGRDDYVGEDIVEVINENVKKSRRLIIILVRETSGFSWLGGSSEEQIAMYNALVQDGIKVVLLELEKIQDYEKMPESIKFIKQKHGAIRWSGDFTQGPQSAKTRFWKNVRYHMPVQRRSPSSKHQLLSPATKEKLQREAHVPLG

Toll-like receptor 9 [2] = target: T2, Toll-like receptor 9 (Homo sapiens, UniProt Q9NR96); test: Antagonist activity at TLR9 in human whole blood inhibition of DOTAP-ODN2216-induced IFNalpha production preincubated for 30 mins followed by DOTAP-ODN2216 addition and measured after 20 hrs by ELISA; format: tissue-based
T2 sequence (Q9NR96 whole entry): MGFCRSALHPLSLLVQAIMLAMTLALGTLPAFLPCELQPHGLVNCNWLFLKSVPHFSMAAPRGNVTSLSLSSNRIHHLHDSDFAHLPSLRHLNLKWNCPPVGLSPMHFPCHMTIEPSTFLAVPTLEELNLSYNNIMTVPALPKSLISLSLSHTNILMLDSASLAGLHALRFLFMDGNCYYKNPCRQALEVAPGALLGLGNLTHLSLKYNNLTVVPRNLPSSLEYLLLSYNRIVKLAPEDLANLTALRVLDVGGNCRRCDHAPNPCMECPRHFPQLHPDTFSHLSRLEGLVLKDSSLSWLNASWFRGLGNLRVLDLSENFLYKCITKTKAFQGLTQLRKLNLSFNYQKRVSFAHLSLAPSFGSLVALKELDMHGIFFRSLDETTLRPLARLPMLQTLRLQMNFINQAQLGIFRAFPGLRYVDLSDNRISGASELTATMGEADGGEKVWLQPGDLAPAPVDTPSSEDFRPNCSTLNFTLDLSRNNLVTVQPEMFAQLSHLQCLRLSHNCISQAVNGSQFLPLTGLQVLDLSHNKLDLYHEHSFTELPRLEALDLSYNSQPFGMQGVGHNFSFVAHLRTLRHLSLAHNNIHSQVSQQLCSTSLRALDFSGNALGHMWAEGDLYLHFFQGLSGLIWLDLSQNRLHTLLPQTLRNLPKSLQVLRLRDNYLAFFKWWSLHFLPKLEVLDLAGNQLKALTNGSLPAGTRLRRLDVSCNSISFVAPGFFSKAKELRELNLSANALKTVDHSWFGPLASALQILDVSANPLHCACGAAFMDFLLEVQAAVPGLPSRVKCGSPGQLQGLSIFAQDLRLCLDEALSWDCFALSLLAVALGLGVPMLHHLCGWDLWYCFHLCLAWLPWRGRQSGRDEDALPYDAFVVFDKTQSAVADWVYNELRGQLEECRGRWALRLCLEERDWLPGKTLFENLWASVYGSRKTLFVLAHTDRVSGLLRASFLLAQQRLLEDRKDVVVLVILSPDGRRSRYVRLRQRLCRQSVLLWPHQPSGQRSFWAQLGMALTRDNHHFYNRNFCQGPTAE

Toll-like receptor 2 = Toll-like receptor 2 (Homo sapiens, UniProt O60603); test: Antagonist activity at TLR2 in human PBMC assessed as inhibition of Pam3CSK4-induced TNFalpha production preincubated for 30 mins followed by Pam3CSK4 addition and measured after 20 hrs by HTRF assay; format: cell-based
Toll-like receptor 2, sequence (O60603 whole entry): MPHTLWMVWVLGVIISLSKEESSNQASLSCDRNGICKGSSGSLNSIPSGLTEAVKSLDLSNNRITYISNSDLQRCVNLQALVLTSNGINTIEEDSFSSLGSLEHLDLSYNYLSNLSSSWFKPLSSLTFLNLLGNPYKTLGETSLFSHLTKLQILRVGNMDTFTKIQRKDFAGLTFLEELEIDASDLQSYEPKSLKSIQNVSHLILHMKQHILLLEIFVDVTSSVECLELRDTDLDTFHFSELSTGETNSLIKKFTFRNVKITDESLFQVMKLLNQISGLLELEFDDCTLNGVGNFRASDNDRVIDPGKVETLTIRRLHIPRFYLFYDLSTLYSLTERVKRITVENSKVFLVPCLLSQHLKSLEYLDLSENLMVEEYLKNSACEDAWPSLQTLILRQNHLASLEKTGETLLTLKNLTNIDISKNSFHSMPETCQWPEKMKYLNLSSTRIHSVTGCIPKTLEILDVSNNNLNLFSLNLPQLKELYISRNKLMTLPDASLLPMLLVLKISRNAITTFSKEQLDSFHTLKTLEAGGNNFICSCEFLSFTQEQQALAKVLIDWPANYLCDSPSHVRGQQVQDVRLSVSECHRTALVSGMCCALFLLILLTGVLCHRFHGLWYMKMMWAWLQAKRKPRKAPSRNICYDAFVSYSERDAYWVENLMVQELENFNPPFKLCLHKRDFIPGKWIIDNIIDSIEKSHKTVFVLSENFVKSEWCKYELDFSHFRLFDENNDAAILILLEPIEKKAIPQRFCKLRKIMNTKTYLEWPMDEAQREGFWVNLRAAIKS

Toll-like receptor 9 [3] = target: T3, Toll-like receptor 9 (Mus musculus, UniProt Q9EQU3); test: Antagonist activity at TLR9 in mouse whole blood inhibition of DOTAP-ODN2216-induced IFNalpha production preincubated for 30 mins followed by DOTAP-ODN2216 addition and measured after 20 hrs by ELISA; format: tissue-based
T3 sequence (Q9EQU3 whole entry): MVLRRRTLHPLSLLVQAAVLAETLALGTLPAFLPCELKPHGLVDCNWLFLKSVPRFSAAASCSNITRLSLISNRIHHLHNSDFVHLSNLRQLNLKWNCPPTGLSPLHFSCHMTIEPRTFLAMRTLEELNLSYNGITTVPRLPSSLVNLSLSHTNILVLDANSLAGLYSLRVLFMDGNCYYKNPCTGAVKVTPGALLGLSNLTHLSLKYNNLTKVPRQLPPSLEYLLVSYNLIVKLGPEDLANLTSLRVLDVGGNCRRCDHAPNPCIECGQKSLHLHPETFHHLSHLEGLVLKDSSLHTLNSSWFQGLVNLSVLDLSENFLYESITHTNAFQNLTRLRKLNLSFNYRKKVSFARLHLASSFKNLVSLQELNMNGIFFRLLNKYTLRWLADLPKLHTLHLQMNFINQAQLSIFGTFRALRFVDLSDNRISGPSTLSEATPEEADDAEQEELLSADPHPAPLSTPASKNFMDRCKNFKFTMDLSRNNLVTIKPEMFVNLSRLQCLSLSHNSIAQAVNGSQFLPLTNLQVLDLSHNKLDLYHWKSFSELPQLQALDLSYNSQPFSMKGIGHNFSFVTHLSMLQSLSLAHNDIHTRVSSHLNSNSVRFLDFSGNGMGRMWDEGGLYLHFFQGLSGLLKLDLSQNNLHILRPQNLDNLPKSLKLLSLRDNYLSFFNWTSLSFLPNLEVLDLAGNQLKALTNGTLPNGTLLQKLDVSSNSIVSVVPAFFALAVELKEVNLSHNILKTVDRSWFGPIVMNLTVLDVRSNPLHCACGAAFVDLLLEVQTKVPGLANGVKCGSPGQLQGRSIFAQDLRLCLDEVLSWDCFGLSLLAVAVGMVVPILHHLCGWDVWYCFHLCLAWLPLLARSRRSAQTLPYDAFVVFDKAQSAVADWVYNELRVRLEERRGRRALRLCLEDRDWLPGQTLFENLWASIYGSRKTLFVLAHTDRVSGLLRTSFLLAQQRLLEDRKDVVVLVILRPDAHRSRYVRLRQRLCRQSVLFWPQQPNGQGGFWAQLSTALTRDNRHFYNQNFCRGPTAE

Toll-like receptor 4 = Toll-like receptor 4 (Homo sapiens, UniProt O00206); test: Antagonist activity at TLR4 in human PBMC assessed as inhibition of LPS-induced TNFalpha production preincubated for 30 mins followed by LPS addition and measured after 20 hrs by HTRF assay; format: cell-based
Toll-like receptor 4, sequence (O00206 whole entry): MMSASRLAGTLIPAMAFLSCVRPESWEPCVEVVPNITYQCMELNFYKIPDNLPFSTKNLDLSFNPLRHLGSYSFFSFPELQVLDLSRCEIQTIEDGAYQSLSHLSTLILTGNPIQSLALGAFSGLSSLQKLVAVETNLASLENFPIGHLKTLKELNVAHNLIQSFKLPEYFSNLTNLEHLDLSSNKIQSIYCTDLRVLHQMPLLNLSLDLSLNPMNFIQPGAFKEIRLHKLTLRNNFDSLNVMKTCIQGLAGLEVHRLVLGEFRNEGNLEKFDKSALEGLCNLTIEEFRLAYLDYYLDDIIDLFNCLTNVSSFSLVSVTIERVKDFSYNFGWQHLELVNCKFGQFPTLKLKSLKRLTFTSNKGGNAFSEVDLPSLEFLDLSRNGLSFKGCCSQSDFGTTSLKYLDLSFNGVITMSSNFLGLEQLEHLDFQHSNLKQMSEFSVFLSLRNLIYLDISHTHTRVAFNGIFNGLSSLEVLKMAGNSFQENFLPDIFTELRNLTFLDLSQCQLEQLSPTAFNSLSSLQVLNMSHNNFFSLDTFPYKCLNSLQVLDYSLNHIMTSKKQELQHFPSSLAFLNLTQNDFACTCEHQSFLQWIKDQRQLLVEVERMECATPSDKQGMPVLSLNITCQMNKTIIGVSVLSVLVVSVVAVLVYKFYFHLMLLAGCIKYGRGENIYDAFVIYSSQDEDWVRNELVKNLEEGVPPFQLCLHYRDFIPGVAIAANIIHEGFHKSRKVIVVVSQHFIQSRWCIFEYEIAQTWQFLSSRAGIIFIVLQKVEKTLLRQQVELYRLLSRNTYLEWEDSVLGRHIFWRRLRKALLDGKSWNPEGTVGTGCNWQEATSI

IC50 [1]: > 6.5 µM
IC50 (Toll-like receptor 9 [2]): > 10 µM
IC50 (Toll-like receptor 2): > 6.5 µM
IC50 (Toll-like receptor 9 [3]): > 10 µM
IC50 (Toll-like receptor 4): > 6.5 µM
Compound: O=c1ccc(-c2cc(C(F)(F)F)c3nn([C@H]4CCNC[C@@H]4F)cc3c2)c2n1CCC2
